Consider 44 compounds from patent US6569878B1, “Substituted 4-amino-thiazol-2-yl compounds as cyclin-dependent kinase inhibitors” (Agouron Pharmaceuticals Inc., priority 1997, dated 2003).

Each structure is given as a SMILES string. Bounds are passed on as bounds.

T1 sequence (P11802 whole entry): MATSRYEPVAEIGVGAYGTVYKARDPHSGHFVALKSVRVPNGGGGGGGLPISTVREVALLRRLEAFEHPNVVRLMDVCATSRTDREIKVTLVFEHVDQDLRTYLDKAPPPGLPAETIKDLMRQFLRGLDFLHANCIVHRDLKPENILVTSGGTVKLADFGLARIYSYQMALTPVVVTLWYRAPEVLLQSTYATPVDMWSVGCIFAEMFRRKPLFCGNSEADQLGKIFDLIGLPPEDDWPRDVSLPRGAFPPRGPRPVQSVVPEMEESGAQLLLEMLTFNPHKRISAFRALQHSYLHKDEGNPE
T1 sequence (P30281 whole entry partner): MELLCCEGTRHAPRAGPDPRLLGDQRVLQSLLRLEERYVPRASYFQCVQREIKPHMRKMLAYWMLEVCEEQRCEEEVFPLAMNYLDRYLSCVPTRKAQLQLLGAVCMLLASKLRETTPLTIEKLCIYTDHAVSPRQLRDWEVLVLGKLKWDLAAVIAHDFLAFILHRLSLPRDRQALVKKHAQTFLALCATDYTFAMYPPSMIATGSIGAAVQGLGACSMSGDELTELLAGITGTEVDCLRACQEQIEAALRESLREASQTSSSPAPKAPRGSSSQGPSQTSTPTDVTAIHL

One assay addresses T1, complex of human CDK4 and cyclin D3 (Homo sapiens, UniProt P11802).
T1 construct: made in house; host or cells: insect cells, co-infected with baculovirus
The assay is described as follows: Inhibition of CDK4/cyclin D retinoblastoma kinase activity (D-type cyclin is D3). The class given is biochemical. Particulars: superscript a: D-type cyclin is D3; apparent Ki; read-out: Ki CDK 4/D. As to the method: Cyclin-dependent kinase activity was measured by quantifying the enzyme-catalyzed, time-dependent incorporation of radioactive phosphate from [^32P]ATP or [^33P]ATP into a protein substrate. […] Reactions were initiated with enzyme, incubated at 30° C., and terminated after 20 minutes by the addition of ethylenediaminetetraacetic acid (EDTA) to 250 mM. […] Radioactivity was quantified by exposing the dried membranes to a phosphorimager.
Apparent Ki values were measured by assaying enzyme activity in the presence of different inhibitor compound concentrations and subtracting the background radioactivity measured in the absence of enzyme. The kinetic parameters (kcat, Km for ATP) were measured for each enzyme under the usual assay conditions by determining the dependence of initial rates on ATP concentration. Inhibition data were fit to an equation for competitive inhibition using Kaleidagraph (Synergy Software), or were fit to an equation for competitive tight-binding inhibition using the software KineTic (BioKin, Ltd.).
Phosphorylated Rb substrate was captured by microfiltration on a nitrocellulose membrane and quantified using a phosphorimager as described above. For measurement of tight-binding inhibitors, the enzyme complex concentration was lowered to 5 nM, and the assay duration was extended to 60 minutes, during which the time-dependence of product formation was linear.
In the case of `Nc1nc(Nc2ccccc2)sc1C(=O)c1ccc([N+](=O)[O-])cc1` [A(2), (4-Amino-2-phenylamino-thiazol-5-yl)-(4-nitrophenyl)-methanone], the Ki was approximately 0.3 µM.
Regarding `Nc1nc(Nc2ccc(I)cc2)sc1C(=O)c1ccccc1[N+](=O)[O-]` [A(7), [4-Amino-2-(4-iodo-phenylamino)-thiazol-5-yl]-(2-nitro-phenyl)-methanone], the Ki was found to be 0.31 µM.
Consider `Nc1nc(Nc2cccnc2)sc1C(=O)c1ccccc1[N+](=O)[O-]` [A(11), [4-Amino-2-(pyridin-3-ylamino)-thiazol-5-yl]-(2-nitro-phenyl)-methanone], for which the Ki was determined as 0.13 µM.
In the case of `COc1ccc(C(=O)c2sc(Nc3ccc(C)cc3)nc2N)c(OC)c1` [A(13), [4-Amino-2-(p-tolylamino)-thiazol-5-yl]-(2,4-dimethoxyphenyl)-methanone], the Ki was 0.25 µM.
On the same count and under the same terms, to `Cc1ccc(Nc2nc(N)c(C(=O)c3ccc(C)cc3C)s2)cc1` [A(14), [4-Amino-2-(p-tolylamino)-thiazol-5-yl]-(2,4-dimethylphenyl)-methanone] belongs 0.18 µM.
The same measure, in the same setting: to `COc1ccc(C(=O)c2sc(Nc3ccc(OCc4ccccc4)cc3)nc2N)cc1` [C(2), [4-Amino-2-(4-benzyloxy-phenylamino)-thiazol-5-yl]-(4-methoxy-phenyl)-methanone] belongs more than 5 µM; to `Cc1c(C(=O)c2sc(Nc3ccc(N(C)C)cc3)nc2N)sc2ccccc12` [C(7), [4-Amino-2-((4-dimethylaminophenyl)amino)-thiazol-5-yl]-(3-methyl-benzo[b]thiophen-2-yl)-methanone], 0.51 µM.
On the same count and under the same terms, to `Cc1c(C(=O)c2sc(Nc3ccc(N(C)C)cc3)nc2N)sc2ccc(Cl)cc12` [C(9)] belongs 0.74 µM; to `Cc1c(C(=O)c2sc(Nc3ccc4nc[nH]c4c3)nc2N)sc2ccc(Cl)cc12` [C(10), [4-Amino-2-(1H-benzoimidazol-6-yl-amino)-thiazol-5-yl]-(5-chloro-3-methyl-benzo[b]thiophen-2-yl)-methanone], 0.68 µM.
`Nc1nc(Nc2ccc3c(c2)OCO3)sc1C(=O)c1ccccc1[N+](=O)[O-]` [C(11), [4-Amino-2-(benzo[1,3]dioxol-5-yl-amino)-thiazol-5-yl]-(2-nitro-phenyl)-methanone]: the Ki came out at 0.13 µM.
For `Nc1nc(Nc2ccc([N+](=O)[O-])cc2)sc1C(=O)c1ccccc1[N+](=O)[O-]` [C(13), [4-Amino-2-(4-nitro-phenylamino)-thiazol-5-yl]-(2-nitro-phenyl)-methanone], the Ki amounted to 0.051 µM.
The same measure, in the same setting: to `Nc1nc(NC2CCCCC2)sc1C(=O)c1ccccc1[N+](=O)[O-]` [C(14), (4-Amino-2-cyclohexylamino-thiazol-5-yl)-(2-nitro-phenyl)-methanone] belongs 0.057 µM; to `CC(C)c1ccc(Nc2nc(N)c(C(=O)c3ccccc3[N+](=O)[O-])s2)cc1` [C(15), [4-Amino-2-(4-isopropyl-phenylamino)-thiazol-5-yl]-(2-nitro-phenyl)-methanone], 0.057 µM.
Same read-out and setting: to `Nc1nc(NCCc2ccc(Cl)cc2)sc1C(=O)c1ccccc1[N+](=O)[O-]` [C(16), {4-Amino-2-[2-(4-chloro-phenyl)-ethylamino]-thiazol-5-yl}-(2-nitro-phenyl)-methanone] belongs 0.17 µM; to `CCN(CC)c1ccc(Nc2nc(N)c(C(=O)c3ccccc3[N+](=O)[O-])s2)cc1` [C(17), [4-Amino-2-(4-diethylamino-phenylamino)-thiazol-5-yl]-(2-nitro-phenyl)-methanone], 0.072 µM.
Turning to `CCN(CC)c1ccc(Nc2nc(N)c(C(=O)c3ccc([N+](=O)[O-])cc3)s2)cc1` [C(18), [4-Amino-2-(4-diethylamino-phenylamino)-thiazol-5-yl]-(4-nitro-phenyl)-methanone], the Ki is 12.9 µM.
Consider `N#Cc1cccc(Nc2nc(N)c(C(=O)c3ccccc3[N+](=O)[O-])s2)c1` [C(22)], for which the Ki is 0.067 µM.
The same measure, in the same setting: to `COCCCNc1nc(N)c(C(=O)c2ccccc2[N+](=O)[O-])s1` [C(23), [4-Amino-2-(3-methoxy-propylamino)-thiazol-5-yl]-(2-nitro-phenyl)-methanone] belongs 0.33 µM; to `Nc1nc(Nc2ccc(Sc3ncc(C(F)(F)F)cc3Cl)cc2)sc1C(=O)c1ccccc1[N+](=O)[O-]` [C(25), {4-Amino-2-[4-(2-chloro-5-trifluoromethyl-pyridin-2-yl sulfanyl)-phenylamino]-thiazol-5-yl}-(2-nitro-phenyl)-methanone], 1.3 µM; to `COC(=O)c1cccc(Nc2nc(N)c(C(=O)c3ccccc3OC)s2)c1` [C(26), Methyl 3-[4-Amino-5-(2-methoxy-benzoyl)-thiazol-2-ylamino]-benzoate], 0.33 µM.
Take `COc1ccccc1C(=O)c1sc(NCCc2ccc(Cl)cc2)nc1N` [C(27), {4-Amino-2-[2-(4-chloro-phenyl)-ethylamino]-thiazol-5-yl}-(2-methoxy-phenyl)-methanone]: the Ki turned out to be 1.02 µM.
The same measure, in the same setting: to `Nc1nc(Nc2cccnc2)sc1C(=O)c1ccc(Cl)cc1Cl` [C(28), [4-Amino-2-(pyridin-3-ylamino)-thiazol-5-yl]-(2,4-dichloro-phenyl)-methanone] belongs 0.24 µM.
Same read-out and setting: to `COc1ccccc1C(=O)c1sc(Nc2cccnc2)nc1N` [C(29), [4-Amino-2-(pyridin-3-ylamino)-thiazol-5-yl]-(2-methoxy-phenyl)-methanone] belongs 0.357 µM; to `Nc1nc(Nc2cccnc2)sc1C(=O)c1ccc2ccccc2c1` [C(30), [4-Amino-2-(pyridin-3-ylamino)-thiazol-5-yl]-naphthalen-2-yl-methanone], 1.4 µM.
The same measure, in the same setting: to `COc1ccccc1C(=O)c1sc(Nc2ccc3nc[nH]c3c2)nc1N` [C(32), [4-Amino-2-(1H-benzoimidazol-6-ylamino)-thiazol-5-yl]-(2-methoxy-phenyl)-methanone] belongs 0.094 µM; to `COc1ccc(Nc2nc(N)c(C(=O)c3[nH]cnc3C)s2)cc1` [C(40), [4-Amino-2-(4-methoxy-phenylamino)-thiazol-5-yl]-(4-methyl-1H-imidazol-5-yl)-methanone], 3.84 µM.
For `Cn1cccc1C(=O)c1sc(Nc2ccc3nc[nH]c3c2)nc1N` [C(43), [4-Amino-2-(1H-benzimidazol-5-ylamino)-thiazol-5-yl]-(1-methyl-1H-pyrrol-2-yl)-methanone], the Ki worked out at 0.315 µM.
Still for that read-out and setting: to `CC(=O)c1ccc(Nc2nc(N)c(C(=O)c3sccc3C)s2)cc1` [C(44), 1-{4-[4-Amino-5-(3-methyl-thiophene-2-carbonyl)-thiazol-2-ylamino]-phenyl}-ethanone] belongs approximately 0.128 µM; to `Cc1c(C(=O)c2sc(Nc3ccc(N4CCOCC4)cc3)nc2N)ncn1C` [C(77), [4-Amino-2-(4-morpholin-4-yl-phenylamino)-thiazol-5-yl]-(1,5-dimethyl-1H-imidazol-4-yl)-methanone], 3 µM.
Consider `Nc1ccc(C(=O)c2sc(Nc3ccccc3)nc2N)cc1` [D(2), (4-Amino-phenyl)-(4-amino-2-phenylamino-thiazol-5-yl)-methanone], for which the Ki is more than 5 µM.
The same measure, in the same setting: to `CN(C)c1ccc(Nc2nc(N)c(C(=O)c3ccccc3N)s2)cc1` [D(3), [4-Amino-2-(4-dimethylamino-phenylamino)-thiazol-5-yl]-(2-amino-phenyl)-methanone] belongs 0.38 µM; to `Nc1ccc(Nc2nc(N)c(C(=O)c3ccccc3)s2)cc1` [D(4), [4-Amino-2-(4-amino-phenylamino)-thiazol-5-yl]-phenyl-methanone], 0.8 µM.
Still for that read-out and setting: to `Nc1nc(Nc2ccc(S(N)(=O)=O)cc2)sc1C(=O)c1ccc(C(=O)O)cc1` [E(2), 4-[4-Amino-2-(4-sulfamoyl-phenylamino)-thiazole-5-carbonyl]-benzoic Acid] belongs 1.17 µM; to `CN(C)c1ccc(Nc2nc(N)c(C(=O)c3ccc(F)cc3)s2)cc1` [I(7)], approximately 1.5 µM; to `Nc1nc(NC2CCCCC2)sc1C(=O)c1ccc(F)cc1` [I(8)], 4.3 µM.
Still for that read-out and setting: to `Nc1nc(NC2CCCCC2)sc1C(=O)c1ccc([N+](=O)[O-])cc1` [I(9)] belongs 2.5 µM; to `Nc1nc(Nc2ccccc2)sc1C(=O)c1ccc(F)cc1` [I(11)], 0.52 µM; to `COC(=O)c1cccc(Nc2nc(N)c(C(=O)c3cccc(OC)c3)s2)c1` [I(13)], 2.4 µM.

Staying with this assay, now noted: superscript a: D-type cyclin is D3; μM; read-out: Ki CDK 4/D.
`CCC(Nc1nc(N)c(C(=O)c2ccc([N+](=O)[O-])cc2)s1)C(=O)OC` (stereo in doubt) [C(6), Methyl 2(S)-[4-Amino-5-(4-nitro-benzoyl)-thiazol-2-ylamino]-butyrate]: the Ki was more than 10 µM.
Still for that read-out and setting: to `Nc1nc(Nc2ccc([N+](=O)[O-])cc2)sc1C(=O)c1ccccc1` [A(8), [4-Amino-2-(4-nitro-phenylamino)-thiazol-5-yl]-phenyl-methanone] belongs more than 25 µM; to `Nc1nc(Nc2ccc(S(N)(=O)=O)cc2)sc1C(=O)c1ccc(OC(=O)c2ccccc2)cc1` [C(39)], more than 100 µM; to `COc1ccc(CNc2nc(N)c(C(=O)c3cc(C)sc3C)s2)cc1` [C(68), [4-Amino-2-(4-methoxy-benzylamino)-thiazol-5-yl]-(2,5-dimethylthiophen-3-yl)-methanone], more than 30 µM.
On the same count and under the same terms, to `COc1ccc(C(=O)c2sc(Nc3ccccc3)nc2N)cc1` [I(10)] belongs more than 20 µM; to `COC(=O)c1cccc(Nc2nc(N)c(C(=O)c3ccc(Br)cc3)s2)c1` [I(14)], more than 50 µM.
